pIC50: −log10 of the molar value.
Columns and labels:
[1] = biological target: Apolipoprotein L1 (Homo sapiens, UniProt O14791); assay: Inhibition of APOL1 G1 variant in human HEK293-T-REx cells measured by Thallium assay; type: cell-based
[2] = test system: Trypanosoma brucei brucei; assay: Antitrypanosomal activity against Trypanosoma brucei brucei assessed as trypanosome lysis using recombinant APOL1 protein G1 variant and measured by Alamar blue based fluoresence assay; type: functional, organism-based

`NC(=O)CNCC1CC(c2c(-c3ccc(F)cc3)[nH]c3c(F)cc(F)cc23)C1` (stereo unspecified) gave a pIC50 [1] of over 6.60 and a pIC50 [2] of over 6.60.
Work on `O=C(NC[C@@H](O)CO)[C@H]1C[C@H](c2c(-c3ccc(F)cc3)[nH]c3c(F)cc(F)cc32)C1` yielded a pIC50 [1] of under 6.00 and a pIC50 [2] of under 6.00.
Work on `O=C(NC[C@H](O)CO)[C@H]1C[C@H](c2c(-c3ccc(F)cc3)[nH]c3c(F)cc(F)cc32)C1` yielded a pIC50 [1] of under 6.00 and a pIC50 [2] of 6.60.
In the case of `NC(=O)CC1CC(c2c(-c3ccc(F)cc3)[nH]c3c(F)cc(F)cc23)C1` (stereo unspecified), the pIC50 [1] was over 6.60 and the pIC50 [2] was over 6.60.
`NC(=O)CNC[C@H]1C[C@H](c2c(-c3ccc(F)cc3)[nH]c3c(F)cc(F)cc32)C1` gave a pIC50 [1] of over 6.60 and a pIC50 [2] of over 6.60.
In the case of `O=C1CN(C(=O)[C@H]2C[C@H](c3c(-c4ccc(F)cc4)[nH]c4c(F)cc(F)cc43)C2)CCN1`, the pIC50 [1] was under 6.00 and the pIC50 [2] was under 6.00.
`NC(=O)CNC[C@H]1C[C@@H](c2c(-c3ccc(F)cc3)[nH]c3c(F)cc(F)cc32)C1` showed a pIC50 [1] of over 6.60 and a pIC50 [2] of over 6.60.
For `O=C([C@H]1C[C@H](c2c(-c3ccc(F)cc3)[nH]c3c(F)cc(F)cc32)C1)N1C[C@@H](O)[C@H](O)C1`, the pIC50 [1] was under 6.00 and the pIC50 [2] was 6.60.
Compound `NC(=O)C1CC(c2c(-c3ccc(F)cc3)[nH]c3c(F)cc(F)cc23)C1` (stereo unspecified) has a pIC50 [1] of 9.60 and a pIC50 [2] of 6.60.
`O=C([C@H]1C[C@H](c2c(-c3ccc(F)cc3)[nH]c3c(F)cc(F)cc32)C1)N1CCC[C@@H](O)C1` (mixture of isomers) gave a pIC50 [1] of 9.60 and a pIC50 [2] of over 6.60.
`O=C([C@H]1C[C@H](c2c(-c3ccc(F)cc3)[nH]c3c(F)cc(F)cc32)C1)N1CCC[C@H](O)C1` (mixture of isomers) showed a pIC50 [1] of under 6.00 and a pIC50 [2] of 6.60.
Work on `C[C@H](CO)N(C)C(=O)[C@H]1C[C@H](c2c(-c3ccc(F)cc3)[nH]c3c(F)cc(F)cc32)C1` (mixture of isomers) yielded a pIC50 [1] of 9.60 and a pIC50 [2] of over 6.60.
In the case of `O=C(OC1CN(C(=O)C2CC(c3c(-c4ccc(F)cc4)[nH]c4c(F)cc(F)cc34)C2)C1)C1CCOCC1` (trans isomer), the pIC50 [1] was 9.60 and the pIC50 [2] was over 6.60.

— ChEMBL document CHEMBL5052856, “Inhibitors of apol1 and methods of using same” (2021)
